Measurements taken from paper PMC7601839, “Anti-Acne Effects of Cembrene Diterpenoids from the Cultured Soft Coral Sinularia flexibilis” (Marine Drugs, 2020).

Experiments:
iNOS [1] = tested on: iNOS; design: method as in PMID 23675440; conditions: LPS-stimulated murine macrophages; cited from earlier work
COX-2 [2] = tested on: COX-2; design: method as in PMID 23774887; conditions: LPS-stimulated RAW264.7 macrophage cells; cited from earlier work
COX-2 [3] = tested on: COX-2; design: method as in PMID 23675440; conditions: LPS-stimulated murine macrophages; cited from earlier work
iNOS [4] = tested on: iNOS; design: method as in PMID 23774887; conditions: LPS-stimulated RAW264.7 macrophage cells; cited from earlier work
RAW 264.7 cells = assay: Survival rate of RAW 264.7 cells by MTT assay; assay type: cell-based; conditions: LPS-induced RAW 264.7 cells, 24 h, 20 μM
Experimental: (§1) Anti-inflammatory effects were analyzed in RAW 264.7 cells, which were cultured in DMEM with 10% FBS, 1% L-glutamine, and 1% penicillin-streptomycin, and maintained at 37 °C in a 5% CO2 atmosphere. RAW 264.7 cells (4.0 × 10^5 cells/mL) were seeded in 96-well plates and co-treated with LPS (500 ng/mL) and test samples. After 24 h, NO production was determined by Griess reagent, and the absorption was detected at 530 nm. The percentage inhibition of NO production was presented as the anti-inflammatory activity. PGE2 concentrations in cell culture media were determined with a PGE2 enzyme-linked immunosorbent assay (ELISA) kit (Enzo Life Sciences, Farmingdale, NY, USA). The survival rate of RAW 264.7 cells was detected using an MTT assay.

A375 melanoma cells = tested on: A375 melanoma cells; design: method as in PMID 23880933; conditions: cited from earlier work
[5] = tested on: LPS-induced RAW 264.7 cells (NO production); assay: NO production (Griess) in LPS-induced RAW 264.7 cells; assay type: cell-based
Experimental: as §1

Molecule	expression of induced nitric oxide synthase (iNOS) (iNOS [1])	accumulation of COX-2 protein (COX-2 [2])	expression of cyclooxygenase (COX)-2 (COX-2 [3])	accumulation of the proinflammatory iNOS protein (iNOS [4])	Cell Viability (%) (RAW 264.7 cells)	proliferation and migration of A375 melanoma cells (A375 melanoma cells)	inhibitory effects on NO expression [5]	NO Inhibition (%) ([5]; 24 h, 20 μM)
C=C1C(=O)O[C@]2(C)CC[C@@H]1C[C@@H]1O[C@@]1(C)CC/C=C(\C)CC[C@H]2OC(C)=O [Ya-s11, 11-Episinulariolide acetate]	inhibits the expression	could reduce	inhibits the expression	significantly inhibit				
sinulariolide [SC-4]				significantly inhibit	98.8 ± 1.2	inhibits the proliferation and migration	no inhibitory effects	−4.3 ± 1.6
